Results as given in US9827312B2, “Method for carrying therapeutic substances into cells” (MAGFORCE AG, priority 2005, dated 2017).

What was measured:
[1] = system: BT20 (breast carcinoma) cells; experiment: Efficacy of cefamandole/nanoparticle mixture in vitro, BT20 (Example 2); type: cell-based, human; conditions: 72 hrs incubation, cefamandole 0.016 mg/ml in medium, 136 μl MFL AS M01
Experimental: (§1) The experiments in vitro were carried out with the cell lines BT20 (breast carcinoma) and WiDr (colon carcinoma). The tumor cells were taken from tumor tissue of a patient and cultivated as described in DE 199 12 798 C1. 2×10^6 cells, respectively, were prepared in a 75 cm^3 cell culture bottle with 25 ml of cell culture medium (RPMI+10% FBS+1.2 ml of pyruvate for WiDr cells, or respectively BME+10% FBS+pyruvate+5 ml of non-essential amino acids+5 ml glutamine for BT20 cells) for testing the efficacy of the cefamandole/nanoparticle mixture. 136 μl of magnetic fluid MFL AS M01 (iron oxide nanoparticle coated with polycondensed N-(2-aminoethyl)-3-(trimethoxysilyl)propylamine, manufacturer: MagForce Nanotechnologies GmbH, Berlin, Germany) (cFe=2 mol/l) and 390 μl of cefamandole solution (stock solution 1 mg/ml in 0.9% NaCl) were added to said cell suspension.
(§2) After 72 hrs, 30.5% of the BT20 cells and 24% of the WiDr cells had died. Neither cefamandole in the selected concentration, nor the nanoparticle alone, are capable of causing cell death (0% of dead cells). Only the combination of cefamandole and nanoparticles leads to said significant damage of the tumor cells which is due to the transfer of cefamandole into the cells.

[2] = system: tumor cells (in vitro); experiment: Destruction of tumor cells in vitro by cefamandole alone; type: cell-based; conditions: cefamandole without nanoparticles
From the text: Cefamandole (CAS No 30034-03-8) is used to combat bacterial infections. […] This substance's potential to combat cancer cells, however, is to be considered to be rather low. […] It is, however, possible to drastically increase the efficacy of cefamandole in the treatment of tumor cells by the simultaneous application of nanoparticles.

[3] = system: WiDr (colon carcinoma) cells; experiment: Efficacy of cefamandole/nanoparticle mixture in vitro, WiDr (Example 2); type: cell-based, human; conditions: 72 hrs incubation, cefamandole 0.016 mg/ml in medium, 136 μl MFL AS M01
Experimental: as §1, §2

[4] = system: breast carcinoma cell lines BT20; experiment: Increase in the activity of cytostatics with nanoparticles (Table 1), BT20; type: cell-based, human; conditions: procedure of example 2
Experimental: as §1
(§3) Corresponding to the experiment procedure according to example 2, the following […] were tested in vitro with the active ingredients listed in table 1: a) glioblastoma human cell line RUSIRS 1; b) breast carcinoma cell lines BT20; c) colon carcinoma cell line WiDR; d) bronchial carcinoma cells NSCLC, e) rectal carcinoma cells and f) prostate carcinoma cell line DU 145.
(§4) In all cases, an increased activity of the cytostatic could be observed. The increase in activity is indicated in parentheses after the respective cytostatic, wherein (+) means an increase of about 5% to 80% and (++) means an increase of 80% to 500%.

[5] = system: rectal carcinoma cells; experiment: Increase in the activity of cytostatics with nanoparticles (Table 1), rectal carcinoma; type: cell-based; conditions: procedure of example 2
Experimental: as §1, §3, §4

[6] = system: glioblastoma human cell line RUSIRS1; experiment: Increase in the activity of cytostatics with nanoparticles (Table 1), RUSIRS1; type: cell-based; conditions: procedure of example 2
Experimental: as §1, §3, §4

[7] = system: colon carcinoma cell line WiDr; experiment: Increase in the activity of cytostatics with nanoparticles (Table 1), WiDr; type: cell-based, human; conditions: procedure of example 2
Experimental: as §1, §3, §4

[8] = system: prostate carcinoma cell line DU 145; experiment: Increase in the activity of cytostatics with nanoparticles (Table 1), DU 145; type: cell-based; conditions: procedure of example 2
Experimental: as §1, §3, §4

[9] = system: bronchial carcinoma cells NSCLC; experiment: Increase in the activity of cytostatics with nanoparticles (Table 1), NSCLC; type: cell-based; conditions: procedure of example 2
Experimental: as §1, §3, §4

[10] = system: neuroglioma cell line H4; experiment: Increase in the activity of cytostatics with nanoparticles (Table 1), H4; type: cell-based; conditions: procedure of example 2
Experimental: as §1, §3, §4

## Cn1nnnc1SCC1=C(C(=O)O)N2C(=O)[C@@H](NC(=O)[C@H](O)c3ccccc3)[C@H]2SC1 [cefamandole, Cefamandole]
[1]
  dead cells: 0%
[2]
  concentration in the cell culture medium needed for destruction of tumor cells: ≥ 0.5 mg/mL
[3]
  dead cells: 0%

## CN(C)[C@@H]1C(O)=C(C(N)=O)C(=O)[C@@]2(O)C(O)=C3C(=O)c4c(O)cccc4[C@@](C)(O)[C@H]3C[C@@H]12 [tetracycline]
[4]
  increase in the activity of cytostatics: (+) ((+) means an increase of about 5% to 80%)
[5]
  increase in the activity of cytostatics: (++) ((++) means an increase of 80% to 500%)
[6]
  increase in the activity of cytostatics: (+) ((+) means an increase of about 5% to 80%)
[7]
  increase in the activity of cytostatics: (+) ((+) means an increase of about 5% to 80%)
[8]
  increase in the activity of cytostatics: (++) ((++) means an increase of 80% to 500%)
[9]
  increase in the activity of cytostatics: (+) ((+) means an increase of about 5% to 80%)
[10]
  increase in the activity of cytostatics: (+) ((+) means an increase of about 5% to 80%)

## Nc1nc(O)c2ncn(COC(CO)CO)c2n1 [ganciclovir]
[4]
  increase in the activity of cytostatics: (+) ((+) means an increase of about 5% to 80%)
[5]
  increase in the activity of cytostatics: (+) ((+) means an increase of about 5% to 80%)
[6]
  increase in the activity of cytostatics: (++) ((++) means an increase of 80% to 500%)
[7]
  increase in the activity of cytostatics: (+) ((+) means an increase of about 5% to 80%)
[8]
  increase in the activity of cytostatics: (+) ((+) means an increase of about 5% to 80%)
[9]
  increase in the activity of cytostatics: (+) ((+) means an increase of about 5% to 80%)
[10]
  increase in the activity of cytostatics: (+) ((+) means an increase of about 5% to 80%)

## O=NN(CCCl)C(=O)NCCCl [carmustine]
[4]
  increase in the activity of cytostatics: (+) ((+) means an increase of about 5% to 80%)
[5]
  increase in the activity of cytostatics: (+) ((+) means an increase of about 5% to 80%)
[6]
  increase in the activity of cytostatics: (+) ((+) means an increase of about 5% to 80%)
[7]
  increase in the activity of cytostatics: (+) ((+) means an increase of about 5% to 80%)
[8]
  increase in the activity of cytostatics: (+) ((+) means an increase of about 5% to 80%)
[9]
  increase in the activity of cytostatics: (++) ((++) means an increase of 80% to 500%)
[10]
  increase in the activity of cytostatics: (+) ((+) means an increase of about 5% to 80%)

## CCC(C)(C)C(=O)O[C@H]1C[C@@H](C)C=C2C=C[C@H](C)[C@H](CC[C@@H]3C[C@@H](O)CC(=O)O3)[C@H]21 [simvastatin]
[4]
  increase in the activity of cytostatics: (+) ((+) means an increase of about 5% to 80%)
[5]
  increase in the activity of cytostatics: (+) ((+) means an increase of about 5% to 80%)
[6]
  increase in the activity of cytostatics: (+) ((+) means an increase of about 5% to 80%)
[7]
  increase in the activity of cytostatics: (+) ((+) means an increase of about 5% to 80%)
[8]
  increase in the activity of cytostatics: (+) ((+) means an increase of about 5% to 80%)
[9]
  increase in the activity of cytostatics: (++) ((++) means an increase of 80% to 500%)
[10]
  increase in the activity of cytostatics: (+) ((+) means an increase of about 5% to 80%)
